Activity calls are given as the source filed them. The rule behind the calls is not given here.
Experiments:
[1] = target: Serotonin transporter (SERT); test: biochemical
[2] = target: 5-hydroxytryptamine receptor 2A (Homo sapiens, UniProt P28223); test: Displacement of [3H]ketanserin from human 5HT2A receptor expressed in HEK293 cells incubated for 1.5 hrs by Cheng-Prusoff analysis based microbeta scintillation counting method; assay type: cell-based
[3] = target: D(2) dopamine receptor (Homo sapiens, UniProt P14416); test: biochemical
D(2) dopamine receptor, sequence (P14416 whole entry): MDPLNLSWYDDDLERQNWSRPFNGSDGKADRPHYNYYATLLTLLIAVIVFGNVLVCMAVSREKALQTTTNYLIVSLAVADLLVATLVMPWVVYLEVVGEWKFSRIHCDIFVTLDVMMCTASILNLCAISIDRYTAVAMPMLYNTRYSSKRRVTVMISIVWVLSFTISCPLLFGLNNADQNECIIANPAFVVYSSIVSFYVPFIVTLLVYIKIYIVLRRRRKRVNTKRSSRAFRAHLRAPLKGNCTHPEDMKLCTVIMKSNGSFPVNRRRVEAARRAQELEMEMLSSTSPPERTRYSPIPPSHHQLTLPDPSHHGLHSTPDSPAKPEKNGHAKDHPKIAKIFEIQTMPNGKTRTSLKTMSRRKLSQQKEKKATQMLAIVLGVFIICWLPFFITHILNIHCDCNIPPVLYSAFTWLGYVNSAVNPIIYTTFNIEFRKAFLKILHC
Description: Displacement of [3H]-raclopride from human D2 receptor expressed in HEK cells incubated for 1 hr by Cheng-Prusoff analysis based microbeta scintillation counting method

[4] = target: 5-hydroxytryptamine receptor 7 (Homo sapiens, UniProt P34969); test: biochemical
5-hydroxytryptamine receptor 7, sequence (P34969 whole entry): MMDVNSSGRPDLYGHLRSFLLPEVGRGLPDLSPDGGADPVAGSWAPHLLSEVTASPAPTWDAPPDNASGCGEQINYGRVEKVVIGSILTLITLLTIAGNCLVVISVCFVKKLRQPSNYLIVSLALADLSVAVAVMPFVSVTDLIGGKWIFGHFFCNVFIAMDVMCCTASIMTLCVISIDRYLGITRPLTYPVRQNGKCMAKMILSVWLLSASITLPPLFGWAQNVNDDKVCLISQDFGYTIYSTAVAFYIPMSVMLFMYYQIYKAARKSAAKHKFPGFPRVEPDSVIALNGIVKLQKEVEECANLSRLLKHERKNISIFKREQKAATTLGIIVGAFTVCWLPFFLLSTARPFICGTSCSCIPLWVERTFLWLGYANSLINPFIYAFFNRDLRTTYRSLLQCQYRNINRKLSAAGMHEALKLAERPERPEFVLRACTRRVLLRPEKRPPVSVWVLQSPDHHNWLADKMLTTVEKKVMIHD
Description: Displacement of [3H]-5-CT from human 5HT7 receptor expressed in HEK cells incubated for 1 hr by Cheng-Prusoff analysis based microbeta scintillation counting method

[5] = Half life in human liver microsomes at 1 uM measured for 5 to 60 mins under shaking condition in presence of NADPH by LCMS analysis; assay type: ADME, Microsome
[6] = target: 5-hydroxytryptamine receptor 6 (Homo sapiens, UniProt P50406); test: biochemical
5-hydroxytryptamine receptor 6, sequence (P50406 whole entry): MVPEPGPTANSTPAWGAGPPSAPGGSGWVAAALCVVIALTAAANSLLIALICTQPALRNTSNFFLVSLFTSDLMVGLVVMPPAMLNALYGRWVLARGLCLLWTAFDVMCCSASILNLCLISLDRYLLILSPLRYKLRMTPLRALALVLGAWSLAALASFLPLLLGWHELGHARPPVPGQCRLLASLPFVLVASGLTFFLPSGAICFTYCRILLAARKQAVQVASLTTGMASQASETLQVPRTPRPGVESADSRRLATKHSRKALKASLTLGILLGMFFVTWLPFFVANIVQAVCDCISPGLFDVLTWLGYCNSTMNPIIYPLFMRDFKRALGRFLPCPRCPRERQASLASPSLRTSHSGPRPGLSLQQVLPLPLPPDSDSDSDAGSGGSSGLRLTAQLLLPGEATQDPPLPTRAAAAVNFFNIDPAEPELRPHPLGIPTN
Description: Displacement of [3H]LSD from human 5-HT6 receptor expressed in HEK cells incubated for 1 hr by Cheng-Prusoff analysis based microbeta scintillation counting method

[7] = test system: Mus musculus; test: Inhibition of 8-OH-DPAT-induced hypothermia in CD-1 mouse assessed change in body temperature at 20 mg/kg, ip pretreated for 45 mins followed by 8-OH-DPAT addition and measured after 30 mins by thermometric method; assay type: functional, organism-based
[8] = test system: Mus musculus; test: Induction of hypothermia in CD-1 mouse assessed as change in body temperature at 5 mg/kg, ip treated for 60 mins and measured after 30 mins by thermometric method; assay type: functional, organism-based
[9] = test system: Mus musculus; test: Induction of hypothermia in CD-1 mouse assessed as change in body temperature at 5 mg/kg, ip treated for 120 mins and measured after 30 mins by thermometric method; assay type: functional, organism-based
[10] = test system: Mus musculus; test: Induction of hypothermia in CD-1 mouse assessed as change in body temperature at 20 mg/kg, ip treated for 120 mins and measured after 30 mins by thermometric method; assay type: functional, organism-based
[11] = test system: Mus musculus; test: Induction of hypothermia in CD-1 mouse assessed as change in body temperature at 20 mg/kg, ip treated for 60 mins and measured after 30 mins by thermometric method; assay type: functional, organism-based
[12] = test system: Mus musculus; test: Inhibition of 8-OH-DPAT-induced hypothermia in CD-1 mouse assessed change in body temperature at 20 mg/kg, ip pretreated for 45 mins followed by 8-OH-DPAT addition and measured after 15 mins by thermometric method; assay type: functional, organism-based
[13] = test system: Mus musculus; test: Induction of hypothermia in CD-1 mouse assessed as change in body temperature at 20 mg/kg, ip treated for 30 mins and measured after 30 mins by thermometric method; assay type: functional, organism-based
[14] = test system: Mus musculus; test: Induction of hypothermia in CD-1 mouse assessed as change in body temperature at 5 mg/kg, ip treated for 90 mins and measured after 30 mins by thermometric method; assay type: functional, organism-based
[15] = test system: Mus musculus; test: Induction of hypothermia in CD-1 mouse assessed as change in body temperature at 20 mg/kg, ip treated for 90 mins and measured after 30 mins by thermometric method; assay type: functional, organism-based
[16] = test system: Mus musculus; test: Inhibition of 8-OH-DPAT-induced hypothermia in CD-1 mouse assessed change in body temperature at 20 mg/kg, ip pretreated for 45 mins followed by 8-OH-DPAT addition and measured after 45 mins by thermometric method; assay type: functional, organism-based
[17] = test system: Mus musculus; test: Induction of hypothermia in CD-1 mouse assessed as change in body temperature at 5 mg/kg, ip treated for 30 mins and measured after 30 mins by thermometric method; assay type: functional, organism-based
[18] = test system: Mus musculus; test: Inhibition of 8-OH-DPAT-induced hypothermia in CD-1 mouse assessed change in body temperature at 20 mg/kg, ip pretreated for 45 mins followed by 8-OH-DPAT addition and measured after 60 mins by thermometric method; assay type: functional, organism-based
[19] = species on record: Mus musculus; test: Effect on forepaw treading in CD-1 mouse; assay type: ADME, organism-based; details: in vivo
[20] = species on record: Mus musculus; test: Effect on forepaw treading in CD-1 mouse up to 30 mins in presence of 8-OH-DPAT; assay type: functional, organism-based
[21] = species on record: Mus musculus; test: Effect on forepaw treading in CD-1 mouse in presence of 8-OH-DPAT; assay type: functional, organism-based
[22] = test system: Mus musculus; test: Psychoactive effect in CD-1 mouse assessed as effect on immobility time at 5 to 20 mg/kg, ip pretreated for 30 mins and measured after 6 mins by force swim test; assay type: ADME, organism-based; details: in vivo, 0.1 h

5-hydroxytryptamine receptor 2A, sequence (P28223 whole entry): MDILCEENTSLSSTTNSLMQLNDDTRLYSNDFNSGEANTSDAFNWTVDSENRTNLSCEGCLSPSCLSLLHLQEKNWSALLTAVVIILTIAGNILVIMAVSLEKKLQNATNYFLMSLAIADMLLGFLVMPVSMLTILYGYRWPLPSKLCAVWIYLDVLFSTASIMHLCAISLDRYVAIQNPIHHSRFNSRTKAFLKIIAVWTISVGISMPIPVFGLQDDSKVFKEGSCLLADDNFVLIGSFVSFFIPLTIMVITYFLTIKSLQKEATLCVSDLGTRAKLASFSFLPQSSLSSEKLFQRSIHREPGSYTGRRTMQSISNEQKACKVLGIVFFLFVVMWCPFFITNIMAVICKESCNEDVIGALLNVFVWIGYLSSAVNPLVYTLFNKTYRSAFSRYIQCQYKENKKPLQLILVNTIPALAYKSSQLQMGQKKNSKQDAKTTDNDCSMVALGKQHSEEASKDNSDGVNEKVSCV

Structure (SMILES): O=c1c(-c2ccccc2)c2n(c(=O)n1CCCCN1CCCC(c3c[nH]c4ccc(F)cc34)C1)CCCC2 (centres undefined)
- Ki [1]: 105 nM

Structure (SMILES): COc1ccc(-c2c3n(c(=O)n(CCCCN4CCCC(c5c[nH]c6ccc(F)cc56)C4)c2=O)CCCC3)cc1 (centres undefined)
- Ki [1]: 42 nM

Structure (SMILES): COc1ccc(-c2c3n(c(=O)n(CCCCN4CCCC(c5c[nH]c6ccc(OC)cc56)C4)c2=O)CCCC3)cc1 (centres undefined)
- Ki [2]: 1190 nM
- Ki [1]: 52 nM
- Ki [3]: 1800 nM
- Ki [4]: 546 nM
- half-life at 1 µM [5]: 7 min
- Ki [6]: 452 nM

Structure (SMILES): O=c1c(-c2ccccc2F)c2n(c(=O)n1CCCCN1CCCC(c3c[nH]c4ccc(F)cc34)C1)CCCC2 (centres undefined)
- Ki [1]: 28 nM

Structure (SMILES): COc1ccccc1-c1c2n(c(=O)n(CCCCN3CCCC(c4c[nH]c5ccc(F)cc45)C3)c1=O)CCCC2 (centres undefined)
- Ki [1]: 40 nM

Structure (SMILES): O=c1c(-c2ccccc2)c2n(c(=O)n1CCCCN1CCCC(c3c[nH]c4ccccc34)C1)CCCC2 (centres undefined)
- Ki [2]: 725 nM
- deltaT [7]: -1.1 °C
- deltaT [8]: 0.3 °C
- Ki [1]: 27 nM
- deltaT [9]: 0.8 °C
- deltaT [10]: -0.1 °C
- deltaT [11]: 0 °C
- Ki [3]: 2350 nM
- deltaT [12]: -1.2 °C
- Ki [4]: 1090 nM
- deltaT [13]: -0.6 °C
- deltaT [14]: 0.3 °C
- deltaT [15]: -0.2 °C
- deltaT [16]: -0.9 °C
- half-life at 1 µM [5]: 11.1 min
- deltaT [17]: 0.2 °C
- deltaT [18]: 0.7 °C
- Ki [6]: 1150 nM

Structure (SMILES): Cc1ccc(-c2c3n(c(=O)n(CCCCN4CCCC(c5c[nH]c6ccccc56)C4)c2=O)CCCC3)cc1 (centres undefined)
- Ki [1]: 50 nM

Structure (SMILES): Cc1ccccc1-c1c2n(c(=O)n(CCCCN3CCCC(c4c[nH]c5ccccc45)C3)c1=O)CCCC2 (centres undefined)
- Ki [1]: 62 nM

Structure (SMILES): COc1ccc2[nH]cc(C3CCCN(CCCCn4c(=O)c(-c5ccccc5)c5n(c4=O)CCCC5)C3)c2c1 (centres undefined)
- Ki [1]: 102 nM

Structure (SMILES): COc1ccc2[nH]cc(C3CCCN(CCCCn4c(=O)c(-c5ccccc5Cl)c5n(c4=O)CCCC5)C3)c2c1 (centres undefined)
- Ki [1]: 50 nM

Structure (SMILES): O=c1c(-c2ccc(F)cc2)c2n(c(=O)n1CCCCN1CCCC(c3c[nH]c4ccc(F)cc34)C1)CCCC2 (centres undefined)
- Ki [2]: 484 nM
- deltaT [7]: 0.2 °C
- deltaT [8]: 0.8 °C
- Ki [1]: 31 nM
- Activity [19]: Non-Toxic
- deltaT [9]: 0.9 °C
- deltaT [10]: 0 °C
- deltaT [11]: 0.1 °C
- Ki [3]: 1050 nM
- deltaT [12]: -0.1 °C
- Ki [4]: 1110 nM
- deltaT [13]: -0.6 °C
- deltaT [14]: 0.6 °C
- deltaT [15]: 0.1 °C
- deltaT [16]: -0.3 °C
- half-life at 1 µM [5]: 6.2 min
- deltaT [17]: 0.8 °C
- deltaT [18]: -0.4 °C
- Ki [6]: 728 nM
- Activity [20]: Active

Structure (SMILES): COc1ccccc1-c1c2n(c(=O)n(CCCCN3CCCC(c4c[nH]c5ccccc45)C3)c1=O)CCCC2 (centres undefined)
- Ki [1]: 25 nM

Structure (SMILES): COc1ccc2[nH]cc(C3CCCN(CCCCn4c(=O)c(-c5ccccc5C)c5n(c4=O)CCCC5)C3)c2c1 (centres undefined)
- Ki [1]: 66 nM

Structure (SMILES): COc1ccc(-c2c3n(c(=O)n(CCCCN4CCCC(c5c[nH]c6ccccc56)C4)c2=O)CCCC3)cc1 (centres undefined)
- Ki [1]: 52 nM

Structure (SMILES): O=c1c(-c2ccc(Cl)cc2)c2n(c(=O)n1CCCCN1CCCC(c3c[nH]c4ccccc34)C1)CCCC2 (centres undefined)
- Ki [2]: 1490 nM
- deltaT [7]: -1.1 °C
- deltaT [8]: 0.3 °C
- Ki [1]: 30 nM
- deltaT [9]: 0.2 °C
- deltaT [10]: 0.3 °C
- deltaT [11]: 0.7 °C
- Ki [3]: 1650 nM
- deltaT [12]: -1.1 °C
- Ki [4]: 1380 nM
- deltaT [13]: 0.3 °C
- deltaT [14]: -0.1 °C
- deltaT [15]: 0.5 °C
- deltaT [16]: -1.2 °C
- deltaT [17]: 0.1 °C
- deltaT [18]: -1.2 °C
- Ki [6]: 1320 nM

Structure (SMILES): COc1ccc2[nH]cc(C3CCCN(CCCCn4c(=O)c(-c5ccc(F)cc5)c5n(c4=O)CCCC5)C3)c2c1 (centres undefined)
- Ki [1]: 76 nM

Structure (SMILES): COc1ccc2[nH]cc(C3CCCN(CCCCn4c(=O)c(-c5ccccc5F)c5n(c4=O)CCCC5)C3)c2c1 (centres undefined)
- Ki [1]: 236 nM

Structure (SMILES): O=C1CC2(CCCC2)CC(=O)N1CCCCN1CCN(c2ncccn2)CC1 [BUSPIRONE]
- half-life at 1 µM [5]: 6.6 min

Structure (SMILES): O=c1c(-c2ccccc2Cl)c2n(c(=O)n1CCCCN1CCCC(c3c[nH]c4ccc(F)cc34)C1)CCCC2 (centres undefined)
- Ki [1]: 47 nM

Structure (SMILES): O=c1c(-c2ccc(F)cc2)c2n(c(=O)n1CCCCN1CCCC(c3c[nH]c4ccccc34)C1)CCCC2 (centres undefined)
- Ki [2]: 1280 nM
- Activity [21]: Active
- deltaT [7]: -0.2 °C
- deltaT [8]: 0.3 °C
- Ki [1]: 13 nM
- deltaT [9]: 0.5 °C
- deltaT [10]: 0.1 °C
- deltaT [11]: 0.3 °C
- Ki [3]: 1980 nM
- deltaT [12]: -0.2 °C
- Ki [4]: 1710 nM
- deltaT [13]: 0.1 °C
- Activity [22]: Non-Toxic
- deltaT [14]: 0.3 °C
- deltaT [15]: -0.1 °C
- deltaT [16]: -0.3 °C
- half-life at 1 µM [5]: 7 min
- deltaT [17]: 0.3 °C
- deltaT [18]: -0.9 °C
- Ki [6]: 1650 nM

Structure (SMILES): Cc1ccccc1-c1c2n(c(=O)n(CCCCN3CCCC(c4c[nH]c5ccc(F)cc45)C3)c1=O)CCCC2 (centres undefined)
- Ki [1]: 142 nM

Structure (SMILES): Cc1ccc(-c2c3n(c(=O)n(CCCCN4CCCC(c5c[nH]c6ccc(F)cc56)C4)c2=O)CCCC3)cc1 (centres undefined)
- Ki [1]: 233 nM

Structure (SMILES): O=c1c(-c2ccc(Cl)cc2)c2n(c(=O)n1CCCCN1CCCC(c3c[nH]c4ccc(F)cc34)C1)CCCC2 (centres undefined)
- Ki [1]: 259 nM

Structure (SMILES): O=c1c(-c2ccccc2Cl)c2n(c(=O)n1CCCCN1CCCC(c3c[nH]c4ccccc34)C1)CCCC2 (centres undefined)
- Ki [2]: 609 nM
- deltaT [8]: 0.3 °C
- Ki [1]: 8 nM
- deltaT [9]: 0.8 °C
- deltaT [10]: 0.2 °C
- deltaT [11]: 0.2 °C
- Ki [3]: 896 nM
- Ki [4]: 1360 nM
- deltaT [13]: -0.8 °C
- deltaT [14]: 0.9 °C
- deltaT [15]: 0.3 °C
- half-life at 1 µM [5]: 7 min
- deltaT [17]: 0 °C
- Ki [6]: 1030 nM

Structure (SMILES): COc1ccc2[nH]cc(C3CCCN(CCCCn4c(=O)c(-c5ccccc5OC)c5n(c4=O)CCCC5)C3)c2c1 (centres undefined)
- Ki [1]: 239 nM

Structure (SMILES): COc1ccc2[nH]cc(C3CCCN(CCCCn4c(=O)c(-c5ccc(Cl)cc5)c5n(c4=O)CCCC5)C3)c2c1 (centres undefined)
- Ki [1]: 23 nM

Structure (SMILES): COc1ccc2[nH]cc(C3CCCN(CCCCn4c(=O)c(-c5ccc(C)cc5)c5n(c4=O)CCCC5)C3)c2c1 (centres undefined)
- Ki [1]: 321 nM

Structure (SMILES): O=c1c(-c2ccccc2F)c2n(c(=O)n1CCCCN1CCCC(c3c[nH]c4ccccc34)C1)CCCC2 (centres undefined)
- Ki [2]: 325 nM
- deltaT [7]: -1.8 °C
- deltaT [8]: 0.3 °C
- Ki [1]: 15 nM
- deltaT [9]: 1 °C
- deltaT [10]: 0.7 °C
- deltaT [11]: 0 °C
- Ki [3]: > 10000 nM
- deltaT [12]: -1.6 °C
- Ki [4]: 2430 nM
- deltaT [13]: -0.8 °C
- deltaT [14]: 0.7 °C
- deltaT [15]: 0.6 °C
- deltaT [16]: -1.9 °C
- half-life at 1 µM [5]: 12 min
- deltaT [17]: 0.2 °C
- deltaT [18]: -1.8 °C
- Ki [6]: 1030 nM

Reference: ChEMBL document CHEMBL4364313, “Synthesis of new 5,6,7,8-tetrahydropyrido[1,2-c]pyrimidine derivatives with rigidized tryptamine moiety as potential SSRI and 5-HT1A receptor ligands” (Eur J Med Chem, 2019)
